Like-named read-outs stand apart in the source and are kept apart here.
Key:
human MAO-A = target: T1, human MAO-A (Homo sapiens, UniProt P21397); test: MAO-Glo bioluminescent MAO-A inhibition assay; format: biochemical; conditions: Table 1
T1 construct: purchased MilliporeSigma (Milan, Italy); host or cells: baculovirus-infected insect cells (BTI-TN-5B1-4)
T1 sequence (P21397 1-527): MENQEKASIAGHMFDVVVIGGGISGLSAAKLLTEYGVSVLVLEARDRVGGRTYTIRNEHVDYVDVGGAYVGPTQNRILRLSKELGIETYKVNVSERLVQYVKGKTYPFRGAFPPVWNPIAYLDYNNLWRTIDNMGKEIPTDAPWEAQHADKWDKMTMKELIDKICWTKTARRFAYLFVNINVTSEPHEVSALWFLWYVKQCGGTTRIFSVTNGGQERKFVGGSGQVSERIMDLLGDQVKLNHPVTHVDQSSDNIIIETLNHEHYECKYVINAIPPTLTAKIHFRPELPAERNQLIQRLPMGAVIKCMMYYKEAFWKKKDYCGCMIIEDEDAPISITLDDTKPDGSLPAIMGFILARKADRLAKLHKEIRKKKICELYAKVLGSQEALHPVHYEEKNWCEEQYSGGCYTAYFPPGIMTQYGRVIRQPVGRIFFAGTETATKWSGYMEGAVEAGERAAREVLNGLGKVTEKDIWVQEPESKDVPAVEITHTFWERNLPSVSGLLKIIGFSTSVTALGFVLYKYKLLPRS

human MAO-B = target: T2, human MAO-B (Homo sapiens, UniProt P27338); test: MAO-Glo bioluminescent MAO-B inhibition assay; format: biochemical; conditions: for Selectivity of inhibition between MAO-A and MAO-B, in words: comparison of MAO-A and MAO-B IC50 of Table 1
T2 construct: purchased MilliporeSigma (Milan, Italy); host or cells: baculovirus-infected insect cells (BTI-TN-5B1-4)
T2 sequence (P27338 1-520): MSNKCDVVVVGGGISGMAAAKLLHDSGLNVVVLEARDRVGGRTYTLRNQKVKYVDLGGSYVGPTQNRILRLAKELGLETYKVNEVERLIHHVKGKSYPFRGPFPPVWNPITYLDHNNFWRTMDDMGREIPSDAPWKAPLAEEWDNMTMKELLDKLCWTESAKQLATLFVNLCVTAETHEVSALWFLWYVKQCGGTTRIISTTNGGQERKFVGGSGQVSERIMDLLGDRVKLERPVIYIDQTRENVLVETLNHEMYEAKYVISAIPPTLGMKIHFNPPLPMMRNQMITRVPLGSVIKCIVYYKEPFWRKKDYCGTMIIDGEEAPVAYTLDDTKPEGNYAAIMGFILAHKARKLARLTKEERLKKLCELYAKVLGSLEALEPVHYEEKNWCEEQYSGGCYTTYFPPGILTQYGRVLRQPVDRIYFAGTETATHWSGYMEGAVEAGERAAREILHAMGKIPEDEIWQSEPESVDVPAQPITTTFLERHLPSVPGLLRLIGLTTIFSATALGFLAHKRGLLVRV

[1] = design: method as in PMID 21370449; conditions: after consumption of an apple smoothie; cited from earlier work
[2] = molarity, standard metabolites, read-out: IC50 Value MAO-A M
[3] = Table 1, MAO-Glo, mean of quadruplicate determinations, kiwifruit as mg fruit fresh weight/mL, read-out: IC50 Value MAO-B (mg/mL) (converted)
[4] = Table 1, molarity, standard metabolites, read-out: IC50 Value MAO-B M

IC50 (human MAO-A; MAO-Glo, mean of quadruplicate determinations, kiwifruit as mg fruit fresh weight/mL, read-out: IC50 Value MAO-A (mg/mL) (converted)) [mM] | IC50 (human MAO-B; [3]) [mM] | Compound | IC50 (human MAO-A; [2]) [mM] | IC50 (human MAO-B; [4]) [mM] | Level detected in ileostomy fluids [1] | Selectivity of inhibition between MAO-A and MAO-B, in words (human MAO-B) | IC50 (human MAO-A; IC50 Value MAO-A (mg/mL), MAO-Glo, mean of quadruplicate determinations, kiwifruit as mg fruit fresh weight/mL) [mM] | IC50 (human MAO-A; IC50 Value MAO-A M, molarity, standard metabolites) [mM] | IC50 Value MAO-A (human MAO-A; MAO-Glo, mean of quadruplicate determinations, kiwifruit as mg fruit fresh weight/mL) [mg/mL] | IC50 Value MAO-B (human MAO-B; Table 1, MAO-Glo, mean of quadruplicate determinations, kiwifruit as mg fruit fresh weight/mL) [mg/mL]
2.72 | 0.444 | O=C(O)/C=C/c1ccc(O)c(O)c1 [Caffeic acid, caffeic acid] | 2.75 ± 0.126 | 0.439 ± 0.03 |  |  |  |  |  | 
 | 34.3 | O=C(O)[C@]1(O)C[C@@H](O)[C@@H](O)[C@H](O)C1 [D-(−)-Quinic acid, D-(−)-quinic acid] |  | 34.4 ± 1.31 | ~ 70% | selective activity against MAO-B |  |  |  | 
 |  | (+)-catechin hydrate | 6.46 ± 0.121 | 4.03 ± 0.122 |  | inhibited both enzymes similarly |  |  | 1.88 ± 0.04 | 1.17 ± 0.04

Compound | IC50 (human MAO-A; MAO-Glo, mean of quadruplicate determinations, kiwifruit as mg fruit fresh weight/mL, read-out: IC50 Value MAO-A (mg/mL) (converted)) [mM] | IC50 (human MAO-B; [3]) [mM] | IC50 (human MAO-A; [2]) [mM] | IC50 (human MAO-B; [4]) [mM] | Level detected in ileostomy fluids [1] | Selectivity of inhibition between MAO-A and MAO-B, in words (human MAO-B) | IC50 (human MAO-A; IC50 Value MAO-A (mg/mL), MAO-Glo, mean of quadruplicate determinations, kiwifruit as mg fruit fresh weight/mL) [mM] | IC50 (human MAO-A; IC50 Value MAO-A M, molarity, standard metabolites) [mM] | IC50 Value MAO-A (human MAO-A; MAO-Glo, mean of quadruplicate determinations, kiwifruit as mg fruit fresh weight/mL) [mg/mL] | IC50 Value MAO-B (human MAO-B; Table 1, MAO-Glo, mean of quadruplicate determinations, kiwifruit as mg fruit fresh weight/mL) [mg/mL]
O=c1ccc2cc(O[C@@H]3O[C@H](CO)[C@@H](O)[C@H](O)[C@H]3O)c(O)cc2o1 [Esculin] |  | 12 |  | 12.1 ± 0.372 |  | inhibited both enzymes similarly | 11.5 | 11.5 ± 0.43 |  | 

Source: publication PMC8838583, “Inhibition of Human Monoamine Oxidases A and B by Specialized Metabolites Present in Fresh Common Fruits and Vegetables” (Plants, 2022)
